{"source": "patent US9629365B2", "about": "“Macrocyclic picolinamides compounds with fungicidal activity” (DOW AGROSCIENCES LLC, priority 2013, dated 2017)", "key": {"Puccinia triticina": {"test_system": "Puccinia triticina", "experiment": "Wheat Brown Rust (PUCCRT) fungicidal activity", "type": "in vivo", "settings": "for pest or weed control at 100 ppm: rate 100 ppm (high volume application); for pest or weed control at 121.5 g/ha: rate 121.5 g/H (low volume application)", "protocol": "(§1) Technical grades of materials were dissolved in acetone, which were then mixed with nine volumes of water containing 110 ppm Triton X-100. The fungicide solutions were applied onto wheat seedlings using an automated booth sprayer to run-off. All sprayed plants were allowed to air dry prior to further handling. All fungicides were evaluated using the aforementioned method for their activity vs. all target diseases. Wheat leaf blotch and brown rust activity were also evaluated using track spray applications, in which case the fungicides were formulated as EC formulations, containing 0.1% Trycol 5941 in the spray solutions. Wheat plants (variety Yuma) were grown from seed in a greenhouse in 50% mineral soil/50% soil-less Metro mix until the first leaf was fully emerged, with 7-10 seedlings per pot. These plants were inoculated with an aqueous spore suspension of Septoria tritici either prior to or after fungicide treatments. After inoculation the plants were kept in 100% relative humidity (one day in a dark dew chamber followed by two to three days in a lighted dew chamber at 20° C.) to permit spores to germinate and infect the leaf. The plants were then transferred to a greenhouse set at 20° C. for disease to develop. When disease symptoms were fully expressed on the 1st leaves of untreated plants, infection levels were assessed on a scale of 0 to 100 percent disease severity. Percent disease control was calculated using the ratio of disease severity on treated plants relative to untreated plants. Wheat plants (variety Yuma) were grown from seed in a greenhouse in 50% mineral soil/50% soil-less Metro mix until the first leaf was fully emerged, with 7-10 seedlings per pot. These plants were inoculated with an aqueous spore suspension of Puccinia triticina either prior to or after fungicide treatments. After inoculation the plants were kept in a dark dew room at 22° C. with 100% relative humidity overnight to permit spores to germinate and infect the leaf. The plants were then transferred to a greenhouse set at 24° C. for disease to develop. Fungicide formulation, application and disease assessment followed the procedures as described in the Example A."}, "[1]": {"test_system": "Mycosphaerella graminicola; Anamorph: Septoria tritici", "experiment": "Leaf Blotch of Wheat (SEPTTR) fungicidal activity", "type": "in vivo", "settings": "Zymoseptoria tritici; for pest or weed control at 100 ppm: rate 100 ppm (high volume application); for pest or weed control at 121.5 g/ha: rate 121.5 g/H (low volume application)", "protocol": "as §1, with “plants.” for “plants. Wheat plants (variety Yuma) were grown from seed in a greenhouse in 50% mineral soil/50% soil-less Metro mix until the first leaf was fully emerged, with 7-10 seedlings per pot. These plants were inoculated with an aqueous spore suspension of Puccinia triticina either prior to or after fungicide treatments. After inoculation the plants were kept in a dark dew room at 22° C. with 100% relative humidity overnight to permit spores to germinate and infect the leaf. The plants were then transferred to a greenhouse set at 24° C. for disease to develop. Fungicide formulation, application and disease assessment followed the procedures as described in the Example A.”"}, "Alternaria solani": {"test_system": "Alternaria solani", "experiment": "Tomato Early Blight (ALTESO) fungicidal activity", "type": "in vivo", "settings": "24 h, 1 Day Protectant, tomato plants, read-out: ALTESO Disease Control 1DP"}, "Phakopsora pachyrhizi": {"test_system": "Phakopsora pachyrhizi", "experiment": "Asian Soybean Rust (PHAKPA) fungicidal activity", "type": "in vivo", "settings": "topical, soybean plants", "protocol": "Technical grades of materials were dissolved in acetone, which were then mixed with nine volumes of water containing 0.011% Tween 20. The fungicide solutions were applied onto soybean seedlings using an automated booth sprayer to run-off. All sprayed plants were allowed to air dry prior to further handling.\nSoybean plants (variety Williams 82) were grown in soil-less Metro mix, with one plant per pot. Two weeks old seedlings were used for testing. Plants were inoculated either 3 days prior to or 1 day after fungicide treatments. Plants were incubated for 24 h in a dark dew room at 22° C. and 100% RH then transferred to a growth room at 23° C. for disease to develop. Disease severity was assessed on the sprayed leaves."}, "[2]": {"test_system": "Magnaporthe grisea; Anamorph: Pyricularia oryzae", "experiment": "whole plant or invertebrate", "type": "in vivo", "settings": "24 h, read-out: PYRIOR 1DP Disease Control at 100 ppm"}, "[3]": {"test_system": "Glomerella lagenarium; Anamorph: Colletotrichum lagenarium", "experiment": "Cucumber Anthracnose (COLLLA) fungicidal activity", "type": "in vivo", "settings": "Colletotrichum orbiculare, 24 h, 1 Day Protectant, cucumber seedlings, read-out: COLLLA Disease Control 1DP"}, "Erysiphe cichoracearum": {"test_system": "Erysiphe cichoracearum", "experiment": "Powdery Mildew of Cucumber (ERYSCI) fungicidal activity", "type": "in vivo", "settings": "Golovinomyces cichoracearum, topical, 24 h, 1 Day Protectant, cucumber seedlings, read-out: ERYSCI Disease Control 1DP"}, "Uncinula necator": {"test_system": "Uncinula necator", "experiment": "Grape Powdery Mildew (UNCINE) fungicidal activity", "type": "in vivo", "settings": "Erysiphe necator, 24 h, 1 Day Protectant, read-out: UNCINE 1DP Disease Control at 100 ppm"}, "Leptosphaeria nodorum": {"test_system": "Leptosphaeria nodorum", "experiment": "Wheat Glume Blotch (LEPTNO) fungicidal activity", "type": "in vivo", "settings": "Parastagonospora nodorum, 24 h, 1 Day Protectant, read-out: LEPTNO 1DP Disease Control at 100 ppm", "protocol": "Technical grades of materials were dissolved in acetone, which were then mixed with nine volumes of water containing 110 ppm Triton X-100. The fungicide solutions were applied onto wheat seedlings using an automated booth sprayer to run-off. All sprayed plants were allowed to air dry prior to further handling. All fungicides were evaluated using the aforementioned method for their activity vs. all target diseases. Wheat leaf blotch and brown rust activity were also evaluated using track spray applications, in which case the fungicides were formulated as EC formulations, containing 0.1% Trycol 5941 in the spray solutions. Wheat plants (variety Yuma) were grown from seed in a greenhouse in 50% mineral soil/50% soil-less Metro mix until the first leaf was fully emerged, with 7-10 seedlings per pot. These plants were inoculated with an aqueous spore suspension of Septoria tritici either prior to or after fungicide treatments. […] When disease symptoms were fully expressed on the 1st leaves of untreated plants, infection levels were assessed on a scale of 0 to 100 percent disease severity. Percent disease control was calculated using the ratio of disease severity on treated plants relative to untreated plants. […]"}, "Rhyncosporium secalis": {"test_system": "Rhyncosporium secalis", "experiment": "Barley Scald (RHYNSE) fungicidal activity", "type": "in vivo", "settings": "Hordeum vulgare, 24 h, 1 Day Protectant, read-out: RHYNSE 1DP Disease Control at 100 ppm"}, "Venturia inaequalis": {"test_system": "Venturia inaequalis", "experiment": "Apple Scab (VENTIN) fungicidal activity", "type": "in vivo", "settings": "24 h, 1 Day Protectant, read-out: VENTIN 1DP Disease Control at 100 ppm"}, "[4]": {"test_system": "Blumeria graminis f. Sp. Hordei", "experiment": "Barley Powdery Mildew (ERYSGH) fungicidal activity", "type": "in vivo", "settings": "24 h, 1 Day Protectant, barley seedlings, read-out: ERYSGH Disease Control 1DP"}, "Cercospora beticola": {"test_system": "Cercospora beticola", "experiment": "Leaf Spot of Sugar Beets (CERCBE) fungicidal activity", "type": "in vivo", "settings": "topical, 24 h, 1 Day Protectant, sugar beet plants, read-out: CERCBE Disease Control 1DP"}, "[5]": {"settings": "24 h, 1 Day Protectant, read-out: PUCCRT 1DP disease control"}, "[6]": {"settings": "72 h, 3 Day Curative, read-out: PUCCRT 3DC disease control"}, "[7]": {"settings": "24 h, 1 Day Protectant, read-out: SEPTTR 1DP disease control"}, "[8]": {"settings": "72 h, 3 Day Curative, read-out: SEPTTR 3DC disease control"}}, "note": "Where two headings read alike, the source gives them in different places.", "data": [{"molecule": "CO[C@@H]1[C@@H](CCC(C)C)CCC[C@H](N)C(=O)O[C@H]1C.Cl", "values": [{"measurement": "melting point", "value": "218 to 220", "unit": "°C"}]}, {"molecule": "COc1ccnc(C(=O)N[C@H]2CCC[C@H](Cc3ccc(F)cc3)[C@@H](OCC3CC3)[C@H](C)OC2=O)c1O", "note": "[F10]", "values": [{"measurement": "pest or weed control at 100 ppm", "setting": "Puccinia triticina; [5]", "value": "80 to 100", "unit": "%"}, {"measurement": "pest or weed control at 121.5 g/ha", "setting": "Puccinia triticina; [5]", "value": "80 to 100", "unit": "%"}, {"measurement": "pest or weed control at 100 ppm", "setting": "Puccinia triticina; [6]", "value": "80 to 100", "unit": "%"}, {"measurement": "pest or weed control at 121.5 g/ha", "setting": "Puccinia triticina; [6]", "value": "0 to 80", "unit": "%"}, {"measurement": "pest or weed control at 100 ppm", "setting": "[1]; [7]", "value": "80 to 100", "unit": "%"}, {"measurement": "pest or weed control at 121.5 g/ha", "setting": "[1]; [7]", "value": "80 to 100", "unit": "%"}, {"measurement": "pest or weed control at 100 ppm", "setting": "[1]; [8]", "value": "80 to 100", "unit": "%"}, {"measurement": "pest or weed control at 121.5 g/ha", "setting": "[1]; [8]", "value": "80 to 100", "unit": "%"}]}, {"molecule": "COc1ccnc(C(=O)N[C@H]2CCC[C@H](CCC(C)C)[C@@H](OC(=O)C3CCCC3)[C@H](C)OC2=O)c1OCOC(C)=O", "note": "[F96]", "values": [{"measurement": "pest or weed control at 100 ppm", "setting": "Alternaria solani", "value": "80 to 100", "unit": "%"}, {"measurement": "pest or weed control at 25 ppm", "setting": "Phakopsora pachyrhizi; 24 h, 1 Day Protectant, read-out: PHAKPA Disease Control 1DP", "value": "80 to 100", "unit": "%"}, {"measurement": "pest or weed control at 25 ppm", "setting": "Phakopsora pachyrhizi; 72 h, 3 Day Curative, read-out: PHAKPA Disease Control 3DC", "value": "0 to 80", "unit": "%"}, {"measurement": "pest or weed control at 100 ppm", "setting": "[2]", "value": "80 to 100", "unit": "%"}, {"measurement": "pest or weed control at 100 ppm", "setting": "[3]", "value": "80 to 100", "unit": "%"}, {"measurement": "pest or weed control at 100 ppm", "setting": "Erysiphe cichoracearum", "value": "80 to 100", "unit": "%"}, {"measurement": "pest or weed control at 100 ppm", "setting": "Uncinula necator", "value": "80 to 100", "unit": "%"}, {"measurement": "pest or weed control at 100 ppm", "setting": "Leptosphaeria nodorum", "value": "80 to 100", "unit": "%"}, {"measurement": "pest or weed control at 100 ppm", "setting": "Puccinia triticina; [5]", "value": "80 to 100", "unit": "%"}, {"measurement": "pest or weed control at 121.5 g/ha", "setting": "Puccinia triticina; [5]", "value": "80 to 100", "unit": "%"}, {"measurement": "pest or weed control at 100 ppm", "setting": "Puccinia triticina; [6]", "value": "80 to 100", "unit": "%"}, {"measurement": "pest or weed control at 121.5 g/ha", "setting": "Puccinia triticina; [6]", "value": "0 to 80", "unit": "%"}, {"measurement": "pest or weed control at 100 ppm", "setting": "Rhyncosporium secalis", "value": "80 to 100", "unit": "%"}, {"measurement": "pest or weed control at 100 ppm", "setting": "Venturia inaequalis", "value": "0 to 80", "unit": "%"}, {"measurement": "pest or weed control at 100 ppm", "setting": "[1]; [7]", "value": "80 to 100", "unit": "%"}, {"measurement": "pest or weed control at 121.5 g/ha", "setting": "[1]; [7]", "value": "80 to 100", "unit": "%"}, {"measurement": "pest or weed control at 100 ppm", "setting": "[1]; [8]", "value": "80 to 100", "unit": "%"}, {"measurement": "pest or weed control at 121.5 g/ha", "setting": "[1]; [8]", "value": "80 to 100", "unit": "%"}, {"measurement": "pest or weed control at 100 ppm", "setting": "[4]", "value": "0 to 80", "unit": "%"}, {"measurement": "pest or weed control at 100 ppm", "setting": "Cercospora beticola", "value": "80 to 100", "unit": "%"}]}]}
